Data as given in ChEMBL document CHEMBL1201862, “PubChem BioAssay data set” (2004).
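A five-concentration, 48-hour dose response in 96-well plates underlies each endpoint, interpolated linearly between surrounding concentrations. At the GI50, growth is halved.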 Active and inactive are the calls of the source. No stated cut-off is given here; in the data, active = GI50 up to about 1.1 µM and inactive = higher.

How the values were obtained:
Assay in all cases: DTP human tumour cell line panel, 48 h
[1] = system: COLO 205
[2] = system: EKVX
[3] = system: HCT-116
[4] = system: HOP-18
[5] = system: IGROV-1
[6] = system: KM-20L2
[7] = system: MOLT-4
[8] = system: NCI-H226
[9] = system: NCI-H460
[10] = system: OVCAR-3
[11] = system: OVCAR-5
[12] = system: OVCAR-8
[13] = system: SK-MEL-28
[14] = system: SK-OV-3
[15] = system: SNB-19
[16] = system: SNB-78
[17] = system: UACC-62
[18] = system: UO-31

Measured: GI50

Oc1cc(-c2cccs2)nc2cc3c(cc12)OCO3
inactive: [1] 9.06 µM | [2] > 62.7 µM | [3] 4.14 µM | [4] > 100 µM | [5] 3.37 µM | [6] 15.9 µM | [7] 4.52 µM | [8] 4.32 µM | [9] 3.24 µM | [10] 4.63 µM | [11] 7.98 µM | [12] 4.66 µM | [13] 9.33 µM | [14] 2.7 µM | [15] 10.4 µM | [16] 7.36 µM | [17] 2.92 µM | [18] 4.69 µM

CCSc1nc2sc(C)c(C)c2c(=O)n1-c1ccc(C(=O)O)cc1
inactive: [1] > 100 µM | [2] 54 µM | [3] 22.7 µM | [4] 10.2 µM | [5] 90.8 µM | [6] > 100 µM | [7] 48.5 µM | [8] 19.8 µM | [9] 60.1 µM | [10] 24.8 µM | [11] > 100 µM | [12] 72.4 µM | [13] 54.5 µM | [14] > 100 µM | [15] 31.1 µM | [16] 94 µM | [17] > 100 µM | [18] 25.1 µM

COc1c(OC(C)=O)cc2c(OC(C)=O)c1CC(C)CC(OC)C(O)C(C)/C=C(\C)C(OC(N)=O)C(OC)/C=C\C=C(/C)C(=O)N2 (stereo not drawn)
inactive: [1] 5.77 µM | [2] > 100 µM | [3] > 55.5 µM | [4] > 100 µM | [5] > 100 µM | [6] > 62.1 µM | [7] > 27 µM | [8] > 100 µM | [9] > 100 µM | [10] 98.4 µM | [11] > 100 µM | [12] > 65 µM | [13] > 100 µM | [14] > 100 µM | [15] > 100 µM | [16] > 100 µM | [17] > 100 µM | [18] > 83.6 µM

CCc1cc(Cc2cc(CC)c(NC(=O)C(=O)Cc3ccccn3)c(CC)c2Cl)c(Cl)c(CC)c1NC(=O)C(=O)Cc1ccccn1
inactive: [1] 64 µM | [2] > 100 µM | [3] > 100 µM | [4] > 100 µM | [5] > 100 µM | [6] > 100 µM | [7] > 100 µM | [8] > 100 µM | [9] > 100 µM | [10] > 100 µM | [11] > 100 µM | [12] > 100 µM | [13] > 100 µM | [14] > 100 µM | [15] > 100 µM | [16] > 100 µM | [17] > 100 µM | [18] > 100 µM

CC(C)(C)c1nc2c(o1)/C(=N\c1ccccc1)c1ccccc1C2=O
inactive: [1] 32.3 µM | [2] 13 µM | [3] 3.23 µM | [4] 9.53 µM | [5] 6.87 µM | [6] 27.8 µM | [7] 3.95 µM | [8] 9.42 µM | [9] 6.12 µM | [10] 1.33 µM | [11] 13.6 µM | [12] 2.72 µM | [13] 4.4 µM | [14] 34.5 µM | [15] 8.17 µM | [16] 4.27 µM | [17] 2.17 µM | [18] 5.89 µM

NC(=O)C(=O)CC(=O)c1ccccc1NC1=CC(=O)C(=O)c2ccccc21
inactive: [1] > 100 µM | [2] > 100 µM | [3] 53.1 µM | [4] > 100 µM | [5] > 92.3 µM | [6] > 100 µM | [7] > 55 µM | [8] > 73.3 µM | [9] 98.6 µM | [10] 26.7 µM | [11] > 100 µM | [12] 48.2 µM | [13] > 51.1 µM | [14] > 100 µM | [15] > 58.2 µM | [16] 58.6 µM | [17] 40.6 µM | [18] > 68.5 µM
